Reference: patent US10952940B2, “Reagents and methods for mineralization of tooth enamel” (UNIVERSITY OF WASHINGTON, priority 2016, dated 2021)
Where “and” joins values, the source holds several entries; their conditions need not be identical. Equal values may be shown once. Entries after “also recorded” stand apart in the source; their conditions may differ. Where no end group is shown, it is not given here.

What was measured:
[1] = Mineralization in aqueous solution (kinetics)
Description: Fast kinetics refers to fast mineral formation, such as immediate mineral formation, while slow mineral formation refers to mineral formation over a period of time, such as about 5 minutes to about 1 hour. In some embodiments, a first biomineralizing peptide having faster kinetics can be used in combination with a second biomineralizing peptide having slower kinetics.
The ADP5 peptide was generated using a procedure that was developed for designing protein derived peptides as described previously. Briefly, 7-AA and 12-AA long hydroxyapatite binding peptides (HABPs) were experimentally selected using the c7c- and 12-phage libraries (New England BioLabs Inc., Ipswich, Mass., USA), respectively. Next, the 180 amino acid-long human amelogenin protein (rM180) was divided into 7-AA and 12-AA long segments and each segment was compared with all of the 155 experimentally selected HABPs. The regions with high similarity scores from 7-AA and 12-AA long segments were overlapped and those coinciding high similarity regions were chosen as the putative strong binding regions. These computationally determined high similarity regions were then refined to design the ADPs by protein structure prediction, Ca^2+ ion-binding domain predictions, and meta-functional signature analyses. […]

[2] = Solid binding affinity to HAp
From the text: The ADP5 peptide was generated using a procedure that was developed for designing protein derived peptides as described previously. Briefly, 7-AA and 12-AA long hydroxyapatite binding peptides (HABPs) were experimentally selected using the c7c- and 12-phage libraries (New England BioLabs Inc., Ipswich, Mass., USA), respectively. Next, the 180 amino acid-long human amelogenin protein (rM180) was divided into 7-AA and 12-AA long segments and each segment was compared with all of the 155 experimentally selected HABPs. The regions with high similarity scores from 7-AA and 12-AA long segments were overlapped and those coinciding high similarity regions were chosen as the putative strong binding regions. These computationally determined high similarity regions were then refined to design the ADPs by protein structure prediction, Ca^2+ ion-binding domain predictions, and meta-functional signature analyses. Two separate assays were developed to characterize the ADPs: Solid binding affinity to HAp and mineralization in aqueous solution. […] Because of this property, ADP5 has been used for developing mineralization on human teeth. […] For this, we eliminated the six amino acids from the amino end and alanine from the carboxyl end, while keeping the charged amino acids intact that are thought to initiate mineralization. […]

[3] = Layer-by-layer mineralization by peptide in solution on white spot lesion; design: species or system human; conditions: 0.8 mM sADP5
Description: On extracted human tooth, the entire tooth was painted with lacquer (nail polish) except a 3 mm by 3 mm window on enamel. This window was subjected to etching then remineralization. The following steps were then carried out:
• 1. Etch enamel surface aqueous solution of 2.2 mM K2HPO4, 2.2 mM CaCl2, and 50 mM acetic acid at pH 4.5 for 2 weeks, changing solution every other day, to create white spot lesion (WSL) […]. • 2. Soak in 100 ml of 0.8 mM sADP5 solution at 37 C for 10 minutes then blot dry with tissue paper. • 3. Soak in 600 ml of 4.8 mM CaCl2+2.8 mM K2HPO4 in pH 7.4 Tris buffer at 37 C for 1 hour. • 4. Drip rinse with DI water for 20 seconds then blot dry with Kimwipe™ sheet. • 5. Repeat steps 3-4 to add more mineralized layers. Results & Discussions—

[4] = Side-by-side comparison of peptide-mineralized whitening versus commercial whitening products; conditions: Image-J analysis of optical images; strip 30 mins, gel 10 minutes, peptide 0.8 mM 10 mins + artificial saliva 1 hr
Description: The whitening products were used according to the manufacturers' directions. For the strip, the product was applied to the pre-stained tooth for 30 mins and peeled off. Then the samples were rinsed with water for 1 min to clean the surface of the teeth from any residues from the strip. In the case of the second product, the gel was applied to the pre-stained teeth for 10 minutes and then cleaned by rinsing with water for 1 minute. In the peptide-remineralization case, the stained teeth were incubated with sADP5 (SEQ ID NO:24) peptide solution (0.8 mM) for 10 mins., followed by soaking in the artificial saliva (for 1 hr) that was supplemented with 4.8 mM Ca and 2.9 mM PO4 ionic concentrations.
The samples treated with whitening products or with the remineralization method were prepared for optical imaging for color change and also for surface characterization with scanning electron microscopy. The images of the teeth samples were recorded using a light optical microscopy technique under compact fluorescent light. The recorded images were digitized and examined with Image-J Line (NIH Software) for quantitative analysis of the color change (a, d, f and h). The cross-sectioned samples were prepared for SEM examination of the internal as well as surface structure of the teeth, and the results are shown in FIG. 15 (e, g, and i, plus their inset images).

[5] = 0.8 mM sADP5 10 minutes, then Ca/PO4 1 hour at 37° C.
Description: Extracted human teeth samples were collected from University of Washington clinics. The enamel tissue was cut out the using low speed saw on a perpendicular direction to the underlying dentin tubules. Next, the smear layer on the dentin was removed by polishing down to 0.1 um finish and etching for 10 seconds using 10% citric acid solution. For remineralization treatment, samples were soaked into 200 ul of 0.8 mM sADP5 peptide (SEQ ID NO:24) solution and incubated for 10 minutes at 37° C. Next, excess peptide was removed by blotting and the sample was soaked in 24 mM Tris Buffer solution supplemented with 4.8 mM Ca and 2.88 mM PO4 ions for 1 hour at 37° C. Following the remineralization treatment, samples were rinsed with deionized water, dried in air and characterized with scanning electron microscope

| Substance | mineralization kinetics [1] | binding to HAp [2] | Ca/P of new mineral layers ([3]; after 4 repetitions) | number of distinctive mineral layers formed ([3]; after 4 repetitions of the mineralization steps) | increase of tooth shade above tea-stained baseline [4] | depth of mineral penetration into tubules [5] | occlusion of exposed dentin tubules [5] |
| --- | --- | --- | --- | --- | --- | --- | --- |
| (HPP(S/T)HTLQPHHH(L/I)PVVPAQQPV(A/I)PQQPMMPVPG(H/Q)HSMTP(T/I)QH)1-10 [ADP7] | slow kinetic profile |  |  |  |  |  |  |
| (PGYIN(L/F)SYE(K/N)SHSQAIN(T/V)DRTA)1-10 [ADP5] | fastest mineralization kinetics; also recorded: fast kinetic profile | one of the weakest binding peptides |  |  |  |  |  |
| (SYEKSHSQAINTDRT)1-10 (also: repeated 1-10 times) [sADP5] |  |  | 1.43+0.15 | 4 | 4.64% and 4.6% | 2-3 um | successfully occluded |
